{"source": "patent US20220340629A1", "about": "“Myosin Derived Peptides and Related Compounds with Anticoagulant Activities” (THE SCRIPPS RESEARCH INSTITUTE, priority 0001, published 2022)", "key": {"[1]": {"biological_target": "skeletal muscle myosin-supported prothrombin activation by factors Xa and Va (Homo sapiens, UniProt P00742)", "sequence (P00742 41-179)": "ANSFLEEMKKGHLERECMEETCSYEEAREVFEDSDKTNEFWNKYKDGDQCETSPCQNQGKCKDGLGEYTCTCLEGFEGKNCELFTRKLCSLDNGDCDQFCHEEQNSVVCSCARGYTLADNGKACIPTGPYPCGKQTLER", "sequence (P00742 235-488)": "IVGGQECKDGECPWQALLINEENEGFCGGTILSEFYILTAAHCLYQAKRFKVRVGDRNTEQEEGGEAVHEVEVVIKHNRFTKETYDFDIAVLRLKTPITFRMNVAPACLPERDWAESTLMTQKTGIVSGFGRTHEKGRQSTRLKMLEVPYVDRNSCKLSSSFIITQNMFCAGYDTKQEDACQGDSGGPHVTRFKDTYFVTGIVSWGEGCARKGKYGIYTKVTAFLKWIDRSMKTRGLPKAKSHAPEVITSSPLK", "sequence (P12259 29-737 partner)": "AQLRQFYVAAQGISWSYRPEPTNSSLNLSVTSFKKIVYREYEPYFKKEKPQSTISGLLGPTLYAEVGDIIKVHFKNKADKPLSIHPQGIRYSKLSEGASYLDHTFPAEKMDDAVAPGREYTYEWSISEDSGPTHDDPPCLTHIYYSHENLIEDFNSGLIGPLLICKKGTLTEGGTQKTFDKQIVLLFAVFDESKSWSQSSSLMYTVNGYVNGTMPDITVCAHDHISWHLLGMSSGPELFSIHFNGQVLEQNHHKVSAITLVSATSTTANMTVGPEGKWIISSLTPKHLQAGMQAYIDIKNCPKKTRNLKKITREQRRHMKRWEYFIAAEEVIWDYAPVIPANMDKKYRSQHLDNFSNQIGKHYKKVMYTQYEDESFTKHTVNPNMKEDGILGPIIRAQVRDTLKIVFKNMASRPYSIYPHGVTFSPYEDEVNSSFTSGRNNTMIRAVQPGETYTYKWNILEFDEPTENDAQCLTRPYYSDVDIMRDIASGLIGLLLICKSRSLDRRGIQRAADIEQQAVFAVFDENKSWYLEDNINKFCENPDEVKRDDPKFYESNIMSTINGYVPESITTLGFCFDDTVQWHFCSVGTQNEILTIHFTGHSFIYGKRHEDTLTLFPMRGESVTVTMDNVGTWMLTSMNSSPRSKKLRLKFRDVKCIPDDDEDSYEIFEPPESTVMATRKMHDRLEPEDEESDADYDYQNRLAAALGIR", "sequence (P12259 1574-2224 partner)": "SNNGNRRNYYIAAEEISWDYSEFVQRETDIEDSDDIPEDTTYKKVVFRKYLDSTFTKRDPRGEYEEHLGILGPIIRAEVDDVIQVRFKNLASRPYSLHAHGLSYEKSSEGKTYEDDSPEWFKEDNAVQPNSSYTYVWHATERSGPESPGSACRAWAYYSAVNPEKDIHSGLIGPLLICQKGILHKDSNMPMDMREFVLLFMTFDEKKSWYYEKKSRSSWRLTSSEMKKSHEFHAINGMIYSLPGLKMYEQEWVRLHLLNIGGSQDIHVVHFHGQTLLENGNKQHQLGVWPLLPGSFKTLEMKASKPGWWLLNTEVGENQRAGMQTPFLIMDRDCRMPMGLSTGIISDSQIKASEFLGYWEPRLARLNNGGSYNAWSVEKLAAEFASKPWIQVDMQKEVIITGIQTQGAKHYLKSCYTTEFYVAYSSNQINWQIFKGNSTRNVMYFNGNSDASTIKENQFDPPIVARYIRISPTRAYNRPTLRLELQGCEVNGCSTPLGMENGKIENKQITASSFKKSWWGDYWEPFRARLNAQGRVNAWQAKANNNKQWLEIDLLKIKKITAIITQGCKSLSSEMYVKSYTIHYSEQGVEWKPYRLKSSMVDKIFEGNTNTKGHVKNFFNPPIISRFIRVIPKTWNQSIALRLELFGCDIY", "assay": "Assay 1A: prothrombin activation by factor Xa/factor Va/myosin in purified system", "format": "biochemical, human factors Xa and Va; rabbit skeletal muscle myosin", "conditions": "purified system; skeletal muscle myosin, factor Va 5 nM, factor Xa 0.2 nM, prothrombin 0.75 μM, 10 min; read-out: 1A (+myosin)"}, "[2]": {"system": "thrombin generation in human platelet poor plasma with skeletal muscle myosin", "assay": "Assay 2A: thrombin generation, recalcification of human platelet poor plasma + myosin", "format": "biochemical", "conditions": "human platelet poor plasma 30%, myosin 50 nM, CaCl2 10 mmol/L; read-out: 2A (recalcification +myosin)", "method": "Activities of the various peptides and derivative compounds were also examined via assays using recalcification of human plasma. [One of] these assay format (2A) involves monitoring thrombin generation in platelet poor plasma (PPP). Specifically, pooled normal human platelet poor plasma (PPP) (obtained from George King Bio Medical Inc., Overland Park, Kans.) (30%) was incubated with skeletal muscle myosin at 50 nM in the presence of peptide in DMSO or DMSO alone for 5 min at 37° C. Then, fluorogenic thrombin substrate solution (Z-Gly-Gly-Arg-AMC) (I-1140) with CaCl2 (10 mmol/L final) alone was added to the reaction mixture (total 110 μl) to initiate coagulation. Thrombin generation was followed continuously for 25 min using SPECTRAmax GEMINI XS fluorometer (Molecular Devices, Sunnyvale, Calif.) with excitation and emission wavelengths set at 360 and 460 nm, respectively. The first derivative of fluorescence versus time was used to produce thrombin generation curves with the correction for substrate consumption and inner filter effect. For this assay 96 well plate (total 110 μL) or 384 well plates (total 30 μL) were used.\nActivities obtained from Assay 2A (recalcification of human plasma in the presence of myosin) were used to rank the various peptides listed in Table 3. As noted above, this assay monitors recalcification of plasma to stimulate thrombin generation. In this assay, potency of the compounds was determined as the peptide concentration for 50% inhibition of thrombin generation, defined as “IC50”."}, "[3]": {"system": "skeletal muscle myosin-supported prothrombin activation by factors Xa and Va", "assay": "Assay 1A: prothrombin activation by factor Xa/factor Va/myosin in purified system", "format": "biochemical, human factors Xa and Va; rabbit skeletal muscle myosin", "conditions": "for IC50: dose-dependency assays, FIG. 2A, myosin 2 nM, read-out: IC50, inhibition of myosin-supported prothrombin activation; for inhibition of myosin-supported prothrombin activation at 5 μM: peptide 5 μM; for inhibition of myosin-supported prothrombin activation at 5 μM / inhibition of myosin-supported prothrombin activation at 100 μM: FIG. 1A; for inhibition of myosin-supported prothrombin activation at 100 μM: peptide 100 μM; for inhibition of myosin-supported prothrombin activation: dose-dependent studies, FIG. 4, TFP 0-100 μM, ELC peptides 0-300 μM"}, "[4]": {"biological_target": "phospholipid-supported prothrombin activation by factors Xa and Va (Homo sapiens, UniProt P00742)", "sequence (P00742 41-179 limits assumed)": "as the sequence (P00742 41-179) above", "sequence (P00742 235-488 limits assumed)": "as the sequence (P00742 235-488) above", "assay": "Assay 1C: phospholipid vesicle (PC/PS 80%/20%)-supported prothrombin activation", "format": "biochemical"}, "[5]": {"biological_target": "T1, prothrombin activation by factor Xa and factor Va (no myosin) (Homo sapiens, UniProt P00742)", "T1 construct": "the same reaction mixture of factor Xa, factor Va and prothrombin", "T1 sequence (P00742 41-179 limits assumed)": "as the sequence (P00742 41-179) above", "T1 sequence (P00742 235-488 limits assumed)": "as the sequence (P00742 235-488) above", "assay": "Assay 1B: prothrombin activation by factor Xa/factor Va, no myosin", "format": "biochemical", "conditions": "FIG. 4; peptide 0-300 μM"}}, "note": "Non-standard residues stand in square brackets, D forms with d. Residues, ends and D or L forms follow the SMILES beside them. NMeF = CN[C@@H](Cc1ccccc1)C(=O)O; 3Pal = N[C@@H](Cc1cccnc1)C(=O)O; NMeN = CN[C@@H](CC(N)=O)C(=O)O; NMeS = CN[C@@H](CO)C(=O)O; Nle = CCCC[C@H](N)C(=O)O", "data": [{"molecule": "CCCC[C@H](NC(=O)[C@H](Cc1c[nH]c2ccccc12)NC(=O)[C@@H]1CCCN1C(=O)[C@H](Cc1c[nH]c2ccccc12)NC(=O)[C@H](Cc1c[nH]cn1)NC(=O)[C@H](CCCCN)NC(=O)[C@@H](NC(=O)[C@H](CC(N)=O)NC(=O)[C@H](CCCC)NC(=O)[C@H](Cc1ccccc1)NC(=O)[C@H](CO)NC(=O)[C@H](CCCNC(=N)N)NC(=O)[C@@H](NC(=O)[C@H](CC(N)=O)NC(=O)[C@H](Cc1ccc(O)cc1)NC(=O)[C@H](CCC(N)=O)NC(=O)[C@@H](NC(=O)[C@H](CS)NC(=O)[C@H](Cc1cccnc1)NC(=O)[C@@H](NC(=O)[C@H](C)N)[C@@H](C)CC)[C@@H](C)CC)[C@@H](C)CC)C(C)C)C(=O)N[C@@H](CCCCN)C(N)=O", "note": "[HC178] (H-AI[3Pal]CIQYNIRSF[Nle]NVKHWPW[Nle]K-NH2; N-terminus assumed)", "values": [{"measurement": "IC50", "setting": "[1]", "value": 1.7, "unit": "µM"}, {"measurement": "IC50", "setting": "[2]", "value": 13, "unit": "µM"}]}, {"molecule": "CCCC[C@H](NC(=O)[C@H](Cc1c[nH]c2ccccc12)NC(=O)[C@@H]1CCCN1C(=O)[C@H](Cc1c[nH]c2ccccc12)NC(=O)[C@H](Cc1c[nH]cn1)NC(=O)[C@H](CCCCN)NC(=O)[C@@H](NC(=O)[C@H](CC(N)=O)NC(=O)[C@H](CCCC)NC(=O)[C@H](Cc1ccccc1)NC(=O)[C@H](CO)NC(=O)[C@H](CCCNC(=N)N)NC(=O)[C@@H](NC(=O)[C@H](CC(N)=O)NC(=O)[C@H](Cc1ccc(O)cc1)NC(=O)[C@H](CCC(N)=O)NC(=O)[C@@H](NC(=O)[C@H](CO)NC(=O)[C@H](Cc1ccccc1)NC(=O)[C@@H](NC(=O)[C@H](C)N)[C@@H](C)CC)[C@@H](C)CC)[C@@H](C)CC)C(C)C)C(=O)N[C@@H](CCCCN)C(N)=O", "note": "[HC188] (H-AIFSIQYNIRSF[Nle]NVKHWPW[Nle]K-NH2; N-terminus assumed)", "values": [{"measurement": "IC50", "setting": "[1]", "value": 0.59, "unit": "µM"}, {"measurement": "IC50", "setting": "[2]", "value": 10, "unit": "µM"}]}, {"molecule": "CCCC[C@H](NC(=O)[C@H](Cc1c[nH]c2ccccc12)NC(=O)[C@@H]1CCCN1C(=O)[C@H](Cc1c[nH]c2ccccc12)NC(=O)[C@H](Cc1c[nH]cn1)NC(=O)[C@H](CCCCN)NC(=O)[C@@H](NC(=O)[C@H](CC(N)=O)NC(=O)[C@H](CCCC)NC(=O)[C@H](Cc1ccccc1)NC(=O)[C@H](CO)NC(=O)[C@H](CCCNC(=N)N)NC(=O)[C@@H](NC(=O)[C@H](CC(N)=O)NC(=O)[C@H](Cc1ccc(O)cc1)NC(=O)[C@H](CCC(N)=O)NC(=O)[C@@H](NC(=O)[C@H](CO)N(C)C(=O)[C@H](Cc1ccccc1)NC(=O)[C@@H](NC(=O)[C@H](C)N)[C@@H](C)CC)[C@@H](C)CC)[C@@H](C)CC)C(C)C)C(=O)N[C@@H](CCCCN)C(N)=O", "note": "[HC189] (H-AIF[NMeS]IQYNIRSF[Nle]NVKHWPW[Nle]K-NH2; N-terminus assumed)", "values": [{"measurement": "IC50", "setting": "[1]", "value": 1.5, "unit": "µM"}, {"measurement": "IC50", "setting": "[2]", "value": 17, "unit": "µM"}]}, {"molecule": "CCCC[C@H](NC(=O)[C@H](Cc1c[nH]c2ccccc12)NC(=O)[C@@H]1CCCN1C(=O)[C@H](Cc1c[nH]c2ccccc12)NC(=O)[C@H](Cc1c[nH]cn1)NC(=O)[C@H](CCCCN)NC(=O)[C@@H](NC(=O)[C@H](CC(N)=O)NC(=O)[C@H](CCCC)NC(=O)[C@H](Cc1ccccc1)N(C)C(=O)[C@H](CO)NC(=O)[C@H](CCCNC(=N)N)NC(=O)[C@@H](NC(=O)[C@H](CC(N)=O)NC(=O)[C@H](Cc1ccc(O)cc1)NC(=O)[C@H](CCC(N)=O)NC(=O)[C@@H](NC(=O)[C@H](CS)NC(=O)[C@H](Cc1ccccc1)NC(=O)[C@@H](NC(=O)[C@H](C)N)[C@@H](C)CC)[C@@H](C)CC)[C@@H](C)CC)C(C)C)C(=O)N[C@@H](CCCCN)C(N)=O", "note": "[HC198] (H-AIFCIQYNIRS[NMeF][Nle]NVKHWPW[Nle]K-NH2; N-terminus assumed)", "values": [{"measurement": "IC50", "setting": "[1]", "value": 0.87, "unit": "µM"}, {"measurement": "IC50", "setting": "[2]", "value": 16, "unit": "µM"}]}, {"molecule": "CCCC[C@H](NC(=O)[C@H](Cc1c[nH]c2ccccc12)NC(=O)[C@@H]1CCCN1C(=O)[C@H](Cc1c[nH]c2ccccc12)NC(=O)[C@H](Cc1c[nH]cn1)NC(=O)[C@H](CCCCN)NC(=O)[C@@H](NC(=O)[C@H](CC(N)=O)N(C)C(=O)[C@H](CCCC)NC(=O)[C@H](Cc1ccccc1)NC(=O)[C@H](CO)NC(=O)[C@H](CCCNC(=N)N)NC(=O)[C@@H](NC(=O)[C@H](CC(N)=O)NC(=O)[C@H](Cc1ccc(O)cc1)NC(=O)[C@H](CCC(N)=O)NC(=O)[C@@H](NC(=O)[C@H](CS)NC(=O)[C@H](Cc1ccccc1)NC(=O)[C@@H](NC(=O)[C@H](C)N)[C@@H](C)CC)[C@@H](C)CC)[C@@H](C)CC)C(C)C)C(=O)N[C@@H](CCCCN)C(N)=O", "note": "[HC199] (H-AIFCIQYNIRSF[Nle][NMeN]VKHWPW[Nle]K-NH2)", "values": [{"measurement": "IC50", "setting": "[1]", "value": 0.46, "unit": "µM"}, {"measurement": "IC50", "setting": "[2]", "value": "5.8 to 10.2", "unit": "µM"}]}, {"molecule": "CC[C@H](C)[C@H](NC(=O)[C@H](CC(C)C)NC(=O)[C@H](CCC(N)=O)NC(=O)[C@H](C)NC(=O)[C@H](CC(C)C)NC(=O)[C@H](CCCCN)NC(=O)[C@H](CC(=O)O)NC(=O)[C@H](CC(=O)O)NC(=O)[C@H](CCCNC(=N)N)NC(=O)[C@H](CCSC)NC(=O)[C@@H](N)CCC(=O)O)C(=O)N[C@H](C(=O)N[C@@H](CCCNC(=N)N)C(=O)N[C@H](C(=O)N[C@@H](CCC(N)=O)C(=O)N[C@@H](C)C(=O)N[C@@H](CCCNC(=N)N)C(=O)N[C@@H](CS)C(=O)N[C@@H](CCCNC(=N)N)C(=O)NCC(=O)N[C@@H](Cc1ccccc1)C(=O)N[C@@H](CC(C)C)C(=O)N[C@@H](C)C(=O)N[C@@H](CCCNC(=N)N)C(=O)N[C@H](C(=O)N[C@@H](CCC(=O)O)C(=O)N[C@@H](Cc1ccc(O)cc1)C(=O)N[C@@H](CCC(N)=O)C(=O)N[C@@H](CCCNC(=N)N)C(=O)N[C@@H](CCSC)C(N)=O)C(C)C)[C@@H](C)O)[C@@H](C)O", "note": "[HC781-810] (H-EMRDDKLAQLITRTQARCRGFLARVEYQRM-NH2)", "values": [{"measurement": "IC50", "setting": "[3]", "value": 64, "unit": "µM"}, {"measurement": "inhibition of myosin-supported prothrombin activation at 5 μM", "setting": "[3]", "value": "inhibitory, to varying degrees"}, {"measurement": "inhibition of myosin-supported prothrombin activation at 100 μM", "setting": "[3]", "value": "inhibited"}, {"measurement": "IC50", "setting": "[4]; PC/PS vesicles 4 μM, read-out: IC50, phospholipid vesicles containing 20% phosphatidylserine-supported prothrombin activation", "value": 7.5, "unit": "µM"}]}, {"molecule": "QEEIKNMWAAFPPDVGGNVDYKNICYVITH [RLC133-162]", "values": [{"measurement": "IC50", "setting": "[3]", "value": 26, "unit": "µM"}, {"measurement": "inhibition of myosin-supported prothrombin activation at 5 μM", "setting": "[3]", "value": "inhibitory, to varying degrees"}, {"measurement": "inhibition of myosin-supported prothrombin activation at 100 μM", "setting": "[3]", "value": "inhibited"}, {"measurement": "inhibitory effects on phospholipid-supported prothrombin activation", "setting": "[4]; compared with effects on myosin-supported prothrombin activation", "value": "not apparent"}]}, {"molecule": "RVFDKEGNGTVMGAELRHVL [ELC138-157]", "values": [{"measurement": "inhibition of myosin-supported prothrombin activation", "setting": "[3]", "value": "inhibited"}, {"measurement": "inhibition of prothrombin activation in the absence of myosin", "setting": "[5]", "value": "inhibited"}]}, {"molecule": "YEDFVEGLRVFDKEGN [ELC129-144, Ac-YEDFVEGLRVFDKEGN-NH2]", "values": [{"measurement": "inhibition of myosin-supported prothrombin activation", "setting": "[3]", "value": "inhibited"}, {"measurement": "inhibition of prothrombin activation in the absence of myosin", "setting": "[5]", "value": "did not"}]}]}
